For four compounds, EC50, IC50 and AC50 results are on record in ChEMBL document CHEMBL1201862, “PubChem BioAssay data set” (2004).

Structures are written as SMILES. The source made the active and inactive calls.

The target of experiment [1] is T1, Short transient receptor potential channel 4 (Mus musculus, UniProt Q9QUQ5).
T1 sequence (Q9QUQ5 whole entry): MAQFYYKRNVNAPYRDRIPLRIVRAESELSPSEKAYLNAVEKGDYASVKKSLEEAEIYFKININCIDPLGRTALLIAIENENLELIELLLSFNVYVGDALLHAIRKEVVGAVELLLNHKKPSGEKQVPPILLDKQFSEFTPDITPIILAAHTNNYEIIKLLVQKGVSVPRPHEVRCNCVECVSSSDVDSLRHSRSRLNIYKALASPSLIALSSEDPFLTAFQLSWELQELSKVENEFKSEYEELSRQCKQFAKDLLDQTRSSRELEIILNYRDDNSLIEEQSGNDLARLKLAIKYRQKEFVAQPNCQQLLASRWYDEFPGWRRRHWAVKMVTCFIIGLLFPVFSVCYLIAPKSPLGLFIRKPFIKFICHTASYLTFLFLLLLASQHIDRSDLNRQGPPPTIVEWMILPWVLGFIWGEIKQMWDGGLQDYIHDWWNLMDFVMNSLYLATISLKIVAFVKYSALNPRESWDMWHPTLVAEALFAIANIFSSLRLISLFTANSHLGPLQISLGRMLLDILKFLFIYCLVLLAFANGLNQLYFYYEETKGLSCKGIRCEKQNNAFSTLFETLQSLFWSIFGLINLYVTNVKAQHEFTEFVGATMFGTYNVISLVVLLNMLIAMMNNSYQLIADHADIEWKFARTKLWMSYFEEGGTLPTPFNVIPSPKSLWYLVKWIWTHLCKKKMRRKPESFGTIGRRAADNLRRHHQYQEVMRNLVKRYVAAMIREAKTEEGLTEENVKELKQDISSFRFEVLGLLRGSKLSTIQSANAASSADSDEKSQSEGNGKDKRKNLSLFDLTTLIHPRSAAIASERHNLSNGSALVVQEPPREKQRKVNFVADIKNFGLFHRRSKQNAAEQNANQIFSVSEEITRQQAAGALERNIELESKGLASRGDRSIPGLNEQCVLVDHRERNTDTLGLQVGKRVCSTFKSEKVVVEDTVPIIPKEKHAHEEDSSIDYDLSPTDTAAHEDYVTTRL
In words: mouse TRPC4 channel inhibitors, dose response, cell-based, HEK293 TRPC4/mu-opioid, Fluo-4 calcium (AID 434942).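 Also: potency of inhibitors blocking the TRPC4 calcium response.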 The experiment is classed as functional.

In experiment [2] the target is T2, Streptokinase A (Streptococcus pyogenes serotype M1, UniProt P10520).
T2 sequence (P10520 whole entry): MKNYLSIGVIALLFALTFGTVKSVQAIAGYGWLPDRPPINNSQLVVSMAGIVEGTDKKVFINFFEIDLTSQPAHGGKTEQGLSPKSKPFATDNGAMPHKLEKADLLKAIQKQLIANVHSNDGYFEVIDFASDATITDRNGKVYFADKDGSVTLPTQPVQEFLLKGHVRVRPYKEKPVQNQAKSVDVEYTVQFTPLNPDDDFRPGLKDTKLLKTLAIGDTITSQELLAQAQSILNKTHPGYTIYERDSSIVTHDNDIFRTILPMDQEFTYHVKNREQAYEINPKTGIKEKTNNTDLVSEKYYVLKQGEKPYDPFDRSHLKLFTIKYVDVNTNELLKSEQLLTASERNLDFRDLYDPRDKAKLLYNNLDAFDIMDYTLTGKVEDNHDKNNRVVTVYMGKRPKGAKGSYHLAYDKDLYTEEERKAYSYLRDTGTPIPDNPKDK
As to the kind of experiment: S. pyogenes streptokinase expression inhibitors, potency, dose response, plasminogen activation absorbance, OD405 (AID 1914).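 Also: secreted streptokinase activity via plasminogen activation per viability signal from cell pellet.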 Format: functional, Streptococcus pyogenes M1 GAS.

For experiment [3], the system named is Streptococcus sp. 'group A'. In words: growth inhibition of control SK(-) GAS strain, dose response, counter-screen for streptokinase expression inhibitor project, luminescence, kanamycin, BacTiterGlo, confirmation (AID 1900). The experiment is classed as functional, organism-based.
Experiment [4] can be described thus: growth suppression of PTEN-null colon cells, dose response, cell-based, HCT116 PTEN knockout (AID 1047).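 Also: HCT116 colon tumor cells with PTEN knocked out; cells exposed to compound for 60 hours before readout; potency for loss of cell viability measured by luminescence.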 The experiment is classed as functional.
Experiment [5] deals with HEK293. In words: NOD2 signaling inhibitors in MDP-stimulated cells, cell-based, uHTS, luminescence (AID 2001). The experiment is classed as functional. To be noted: Homo sapiens.
Experiment [6] concerns the target Paired box protein Pax-8 (Homo sapiens, UniProt Q06710). As to the kind of experiment: inhibitors of PAX8-driven TPO luciferase reporter, dose response, RMG-I cells, cherry-pick (AID 687027).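 Also: luciferase reporter driven by Pax8 target thyroperoxidase promoter measured by SteadyGlo luminescence.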 The experiment is classed as functional, cell-based.
A short description of experiment [7]: cytotoxicity toward NIH3T3 fibroblasts, dose response, counter-screen, cell-based, ATP luminescence, mouse fibroblasts (AID 2010).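 Also: cells exposed to compound for about 90 hours before reading.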 The experiment is classed as functional.
In experiment [8] the target is T3, Zinc finger protein mex-5 (Caenorhabditis elegans, UniProt Q9XUB2).
T3 sequence (Q9XUB2 whole entry): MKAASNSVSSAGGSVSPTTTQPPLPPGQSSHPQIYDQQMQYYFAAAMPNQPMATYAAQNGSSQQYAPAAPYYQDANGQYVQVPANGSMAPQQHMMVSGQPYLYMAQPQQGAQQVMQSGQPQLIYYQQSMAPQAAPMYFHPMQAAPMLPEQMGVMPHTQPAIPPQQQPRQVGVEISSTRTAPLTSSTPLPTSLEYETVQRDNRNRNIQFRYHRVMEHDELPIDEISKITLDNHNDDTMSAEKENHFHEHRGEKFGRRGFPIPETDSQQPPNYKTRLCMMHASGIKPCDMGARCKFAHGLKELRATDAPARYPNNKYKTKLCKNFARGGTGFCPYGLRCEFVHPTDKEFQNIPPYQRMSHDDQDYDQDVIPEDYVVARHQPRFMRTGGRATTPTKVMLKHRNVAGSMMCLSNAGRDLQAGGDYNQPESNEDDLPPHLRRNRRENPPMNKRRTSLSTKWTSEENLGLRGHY
As to the kind of experiment: MEX-5/TCR-2 RNA interaction inhibitors, dose response, biochemical, C. elegans, fluorescence polarization (AID 1960).

Experiment [9] is described as follows: Luminescence Cell-Based Dose Retest to Confirm Inhibitors of Cancer Stem Cells. [Related pubchem assays (depositor defined):AID2717, AID2721]. To be noted: Homo sapiens. The experiment is classed as functional.

Chain of Paired box protein Pax-8 (Q06710 whole entry): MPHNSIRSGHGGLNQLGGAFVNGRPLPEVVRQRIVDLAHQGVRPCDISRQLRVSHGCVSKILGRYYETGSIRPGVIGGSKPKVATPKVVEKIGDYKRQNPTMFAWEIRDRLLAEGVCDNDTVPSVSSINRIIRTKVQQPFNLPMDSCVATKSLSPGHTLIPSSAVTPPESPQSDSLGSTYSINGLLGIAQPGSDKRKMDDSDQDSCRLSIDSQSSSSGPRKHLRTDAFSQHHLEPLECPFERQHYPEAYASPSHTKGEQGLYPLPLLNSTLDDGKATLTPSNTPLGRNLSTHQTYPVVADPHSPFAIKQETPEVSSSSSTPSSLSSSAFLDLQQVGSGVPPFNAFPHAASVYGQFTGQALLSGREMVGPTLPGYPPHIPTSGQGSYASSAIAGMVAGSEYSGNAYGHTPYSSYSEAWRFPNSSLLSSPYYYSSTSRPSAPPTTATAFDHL

As to `CC(C)c1ccc(S(=O)(=O)/N=C2\C=C(NS(=O)(=O)c3ccccc3)C(=O)c3ccccc32)cc1`, the EC50 in experiment [1] was 7.5 µM (active).
`COc1ccc(CNC(=O)c2c(C)oc3c2C(=O)c2ccccc2C3=O)cc1`: the EC50 in [2] was > 150 µM (not active); in experiment [3] it was 0.737 µM (active); in experiment [4], 20.1 µM (active).
Take `CCSc1nsc(NC(=O)Nc2cccc(F)c2)n1`: the IC50 in experiment [5] is 3.82 µM (inactive). The values for the EC50 in experiment [2] and in experiment [3] were 40.5 µM (active) and 9.91 µM (active), respectively. Further, the AC50 in [6] was 5.73 µM (active).
For the compound `O=[N+]([O-])c1ccc(/C=N/n2cnc3ccccc32)s1`, the EC50 is 5.46 µM (active) in experiment [7] and > 300 µM (inconclusive) in experiment [8]. Also, in experiment [9], the AC50 is 3.84 µM (active).
